From ChEMBL document CHEMBL4689842, “EUbOPEN Chemogenomics Library wave 1” (2021)

Experiments:
Assay type in all cases: toxicity, cell-based
HEK-293T = test: Incucyte cell viability with HEK293T; details: human, 10 µM, compound concentration 10 uM
U2OS = test: Incucyte cell viability with U2OS; details: human, 10 µM, compound concentration 10 uM
Fibroblast = test: Incucyte cell viability with human fibroblast; details: 10 µM, compound concentration 10 uM
[1] = 0 h, replicate number 2, timepoint 0 hours
[2] = 6 h, replicate number 1, timepoint 6 hours
[3] = 12 h, replicate number 1, timepoint 12 hours
[4] = 18 h, replicate number 1, timepoint 18 hours
[5] = 24 h, replicate number 1, timepoint 24 hours
[6] = 0 h, replicate number 1, timepoint 0 hours
[7] = 18 h, replicate number 2, timepoint 18 hours
[8] = 24 h, replicate number 2, timepoint 24 hours
[9] = 6 h, replicate number 2, timepoint 6 hours
[10] = 12 h, replicate number 2, timepoint 12 hours

Measured: Growth Rate
Also: filed as whole numbers so only -1 and 0 and 1 occur.

Cc1c(C(=O)O)cc(-c2ccc(C3CCNCC3)cc2)c2ccc(-c3ccc(C(F)(F)F)cc3)cc12.Cl
0: HEK-293T; [1] | HEK-293T; [2] | HEK-293T; [3] | HEK-293T; [4] | HEK-293T; [5] | U2OS; [6] | U2OS; [4] | U2OS; [5] | Fibroblast; [6] | Fibroblast; [2] | Fibroblast; [3] | Fibroblast; [4] | Fibroblast; [5]
1: U2OS; [3] | U2OS; [7] | U2OS; [8] | Fibroblast; [1] | Fibroblast; [9]

C=CC(=O)Nc1ccc2[nH]c(=O)n(C3CCN(C(=O)c4ccc(-c5nc6cc[nH]c(=O)c6cc5-c5ccccc5)cc4)CC3)c2c1
1: HEK-293T; [8] | U2OS; [2] | U2OS; [3] | U2OS; [4] | U2OS; [5] | Fibroblast; [3] | Fibroblast; [4] | Fibroblast; [5]
0: HEK-293T; [6] | U2OS; [1] | Fibroblast; [6]

O=C(Nc1cccnn1)N1CC(C/C=C/c2cncc(Oc3ccc(C(F)(F)F)cn3)n2)C1
1: HEK-293T; [1] | HEK-293T; [10] | HEK-293T; [5] | U2OS; [1] | U2OS; [3] | U2OS; [4] | U2OS; [5] | Fibroblast; [10] | Fibroblast; [7] | Fibroblast; [5]
0: HEK-293T; [6] | HEK-293T; [2] | U2OS; [6] | U2OS; [2] | U2OS; [7] | U2OS; [8] | Fibroblast; [6]

Cl.O=C([C@@H](Cc1cccc(C(F)(F)F)c1)NS(=O)(=O)c1cc(F)c2c(c1)CCNC2)N1CCCC1
1: HEK-293T; [1] | HEK-293T; [9] | HEK-293T; [10] | HEK-293T; [8] | U2OS; [9] | U2OS; [3] | U2OS; [7] | U2OS; [5] | Fibroblast; [1] | Fibroblast; [3] | Fibroblast; [7] | Fibroblast; [5]
0: HEK-293T; [6] | U2OS; [6] | U2OS; [2] | U2OS; [4]

COc1cc(OC)cc(-c2noc(N3CCN(C)C4(CCN(c5ccnc(C)c5)CC4)C3)n2)c1
0: HEK-293T; [2] | U2OS; [6] | U2OS; [2] | U2OS; [3] | U2OS; [4] | U2OS; [5] | Fibroblast; [1] | Fibroblast; [2] | Fibroblast; [10] | Fibroblast; [7] | Fibroblast; [5]
1: HEK-293T; [10] | HEK-293T; [5] | U2OS; [9] | U2OS; [10] | U2OS; [7] | U2OS; [8] | Fibroblast; [9] | Fibroblast; [3] | Fibroblast; [4]

Cc1cnc(Nc2ccc(F)cc2Cl)nc1-c1c[nH]c(C(=O)N[C@H](CO)c2cccc(Cl)c2)c1
0: HEK-293T; [6] | HEK-293T; [2] | HEK-293T; [3] | HEK-293T; [4] | HEK-293T; [5] | U2OS; [6] | U2OS; [2] | U2OS; [3] | U2OS; [4] | U2OS; [5] | Fibroblast; [1] | Fibroblast; [2] | Fibroblast; [4] | Fibroblast; [5]
1: U2OS; [1] | Fibroblast; [3] | Fibroblast; [7] | Fibroblast; [8]

NC(CCP(=O)(O)O)C(=O)O (racemic)
1: HEK-293T; [2] | HEK-293T; [3] | HEK-293T; [4] | HEK-293T; [5] | U2OS; [3] | U2OS; [4] | U2OS; [5] | Fibroblast; [7] | Fibroblast; [5]
0: HEK-293T; [6] | U2OS; [6] | U2OS; [9] | Fibroblast; [6]

CN(C)[C@H]1CCN(c2cc(-c3ccccc3)nc3ccnn23)C1 [(S)-ZINC-3573]
0: HEK-293T; [1] | HEK-293T; [2] | HEK-293T; [3] | HEK-293T; [4] | HEK-293T; [5] | U2OS; [2] | U2OS; [3] | U2OS; [4] | U2OS; [5] | Fibroblast; [6] | Fibroblast; [2] | Fibroblast; [3] | Fibroblast; [4]
1: HEK-293T; [6] | U2OS; [7] | U2OS; [8] | Fibroblast; [1] | Fibroblast; [5]

CCC(=N\O)/C(C)=C/c1ccc(F)c(C)c1 [A-226]
1: U2OS; [1] | U2OS; [3] | U2OS; [7] | U2OS; [8] | Fibroblast; [7] | Fibroblast; [5]
0: HEK-293T; [1] | HEK-293T; [2] | HEK-293T; [3] | HEK-293T; [4] | HEK-293T; [5] | U2OS; [6] | U2OS; [2] | U2OS; [4] | U2OS; [5] | Fibroblast; [6] | Fibroblast; [2] | Fibroblast; [3] | Fibroblast; [4]
